In patent US6210901A, “Specific binding substances for antibodies and their use for immunoassays or vaccines” (Roche Diagnostics GmbH, priority 1994, dated 2001):

Experiments:
pancreatin = experiment: HCV core2m stress with pancreatin (protease degradation, analytical HPLC); type: in vitro ADME; settings: for Area after 55 min (HPLC peptide peak) / Area after 125 min (HPLC peptide peak): pancreatin c = 1 mg/ml, 50 μl to 200 μl peptide
From the text: The protease stability of a binding substance according to the invention can be determined by exposing it to e.g. pancreatin, a mixture of frequently occurring proteases (including carboxy-peptidase A and B, trypsin, pepsin, chymotrypsin, elastase) or pronase (including aminopeptidase, carboxypeptidase, alkaline and neutral proteinase). The reduced enzymatic degradation of the binding substance can be determined by HPLC analysis of the appearance of peptide fragments over time.
Experimental procedure for core2m digestion with pancreatin.
Firstly core2m solutions were prepared in distilled water at an approximate c=1-3 mg/ml. These solutions were injected into the analytical HPLC (injection volume=40 μl).
These solutions were now diluted such that the area had to be […] when injected again into the HPLC. e.g. Area of the core2m IV solution was 600 000 on the analytical HPLC for an injection volume of 40 μl. Now two parts of this solution are diluted with one part of distilled water.
In each case 200 μl of these adjusted core2m solutions were admixed with 50 μl pancreatin solution (c=1 mg/ml).
A sample of these solutions was injected into the analytical HPLC after 55 min and after 125 min. As a reference a 200 μl sample of each core2m solution was admixed with 50 μl distilled water and injected into the analytical HPLC.
The percentage degradation of the respective peptide can be determined from the areas of the peptide peaks in the analytical HPLC.
Core2m solutions were adjusted to HPLC areas of 400 000 in 40 μl
Pancreatin solution c = 1 mg/ml in H2 O
200 μl of the adjusted core2m solution was allowed to react with 50

[1] = system: antibodies which are directed against the core-epitope of the HCV virus; experiment: Immunoassay (streptavidin tube, peroxidase/ABTS) with biotinylated peptides; reactivity relative to the natural epitope core2m; type: binding; set-up: key to serum A rel. reactivity / serum B rel. reactivity: ratio to reference antigen core2m at the same concentration; settings: for pos. control rel. reactivity: positive control serum, relative to core2m at same concentration; for serum A rel. reactivity: positive serum A; for serum B rel. reactivity: positive serum B
Method: Procedure for an immunoassay using biotinylated binding substances according to the invention against antibodies which are directed against the core-epitope of the HCV virus.
In the binding substances that were used one or several CO--NH peptide binding groups were replaced according to the invention (core2mI-core2mVI)compared to the natural epitope "core2m".
20 μl serum was placed in each case in streptavidin-coated ES 22 tubes from the Boehringer Mannheim Company (negative serum, positive serum, positive sera A-C). Then 1000 μl peptide solution (core 2m or core 2m I-VII concentration 100 ng/ml in potassium phosphate buffer 40 mmol/l, pH 7.0) was added by pipette and allowed to stand for 60 min in an ES 22 instrument from the Boehringer Mannheim Company. After 60 min incubation the peptide/serum solution is removed by pipette and the tubes are washed with test wash solution: 40 mmol/l potassium phosphate buffer, pH 7.0. Then 1000 μl peroxidase conjugate solution (peroxidase conjugated to an anti Fcγ antibody, 0.5 U/ml) is added by pipette and incubated for a further 60 min. The conjugate solution is removed by pipette and the tube is washed with washing solution. Afterwards 1000 μl ABTS solution (1.9 mmol/l) is added by pipette and it is incubated for a further 60 min. After 60 min incubation the solution is pipetted from the tube into a photometer and measured at 405 nm. […] The reactivities are derived from the measured result of the immunoassay relative to a standard curve.
The relative concentration used of the peptide antigens I-VI was derived from their HPLC integrals. The reactivity of the antigens I-VI was determined relative to the reference antigen core2m at the same concentration.

Row | Substance | Area after 55 min (HPLC peptide peak) (pancreatin) | Area after 125 min (HPLC peptide peak) (pancreatin) | % (percentage resistance towards protease degradation) after 55 min (pancreatin; pancreatin) | % (percentage resistance towards protease degradation) after 125 min (pancreatin; pancreatin) | pos. control rel. reactivity [1] | serum A rel. reactivity [1] | serum B rel. reactivity [1] | resistance towards protease degradation (pancreatin; pancreatin, 55 min and 125 min) | Serum C rel. reactivity ([1]; positive serum C) | binding of the artificial epitopes (in words) ([1]; modified epitopes, Example 1)
1 | Bi-XUZUPQDVKFP4 QIVGG V [core2mIV] | 3057359 | 2715127 | 90% | 80% | 0.370 | 0.250 | 0.210 | – | – | –
2 | Bi-XUZUPQDVKFPGGGQIVGGV [core2m, reference compound] | 0 | 0 | 0% | 0% | 1.140 | 1.310 | 1.170 | 0% | 1.140 | –
3 | Bi-XUZUPQDVKFPGGGQIVI V [core2mI] | 3252704 | 2460332 | 100% | 76% | 1.140 | 0.621 | 0.959 | – | – | bind specifically and selectively
